Results on one molecule are retold here after patent publication US7777077B2, “Dual-acting antihypertensive agents” (Theravance, Inc., priority 2007, dated 2010).

One assay concerns the target NEP enzyme (UniProt P08473). Put plainly: In vitro NEP enzyme inhibition assay. In kind it is biochemical. Particulars: fluorogenic peptide substrate; human or rat NEP not given. How it is done:
The inhibitory activities of compounds at human and rat NEP and human ACE were determined using in vitro assays as described below.
Rat NEP was prepared from the kidneys of adult Sprague Dawley rats. Whole kidneys were washed in cold PBS and brought up in ice-cold lysis buffer (1% Triton X-114, 150 mM NaCl, 50 mM Tris pH 7.5; Bordier (1981) J. Biol. Chem. 256:1604-1607) in a ratio of 5 mL of buffer for every gram of kidney. Samples were homogenized using a polytron hand held tissue grinder on ice. Homogenates were centrifuged at 1000×g in a swinging bucket rotor for 5 minutes at 3° C. The pellet was resuspended in 20 mL of ice cold lysis buffer and incubated on ice for 30 minutes. […] Protein concentrations were quantitated using a BCA detection system with BSA as a standard. […]
The assays were performed in 384-well white opaque plates at room temperature using the respective fluorogenic peptides at a concentration of 10 μM in assay buffer (50 mM Tris/HCl at 25° C., 100 mM NaCl, 0.01% Tween-20, 1 μM Zn, 0.025% BSA). […] The rat NEP enzyme preparation was used at a concentration that yielded quantitative proteolysis of 3 μM of Mca-RRL within 20 minutes at room temperature.
Assays were started by adding 25 μL of enzyme to 12.5 μL of test compound at 12 concentrations ([…]). […] Plates were read on a fluorometer with excitation and emission wavelengths set to 320 nm and 405 nm, respectively. […]

The next assay deals with T1, human AT1 receptor (Homo sapiens, UniProt P30556).
T1 construct: expressed in transfected cells; membranes
T1 sequence (P30556 1-359): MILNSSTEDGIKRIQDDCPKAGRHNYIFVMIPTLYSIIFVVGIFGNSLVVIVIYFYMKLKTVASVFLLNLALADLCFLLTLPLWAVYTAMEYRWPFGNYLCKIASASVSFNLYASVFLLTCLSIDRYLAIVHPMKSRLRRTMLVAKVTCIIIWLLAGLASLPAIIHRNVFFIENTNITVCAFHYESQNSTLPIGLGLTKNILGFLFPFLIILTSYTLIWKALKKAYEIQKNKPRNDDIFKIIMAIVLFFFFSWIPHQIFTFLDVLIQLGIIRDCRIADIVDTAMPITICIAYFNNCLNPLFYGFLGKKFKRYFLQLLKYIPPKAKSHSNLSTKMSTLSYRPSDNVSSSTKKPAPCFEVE
Put plainly: AT1 radioligand binding assay. Particulars: [Eu]AngII displacement, membranes of CHO-K1 cells expressing human AT1; read-out: pKi at the AT1 receptor (converted). The procedure:
These in vitro assays were used to assess the ability of test compounds to bind to the AT1 and the AT2 receptors.
Chinese hamster ovary (CHO-K1) derived cell lines stably expressing the cloned human AT1 or AT2 receptors, respectively, were grown in HAM's-F12 medium supplemented with 10% fetal bovine serum, 10 μg/ml penicillin/streptomycin, and 500 μg/ml geneticin in a 5% CO2 humidified incubator at 37° C. AT2 receptor expressing cells were grown in the additional presence of 100 nM PD123,319 (AT2 antagonist). When cultures reached 80-95% confluence, the cells were washed thoroughly in PBS and lifted with 5 mM EDTA. Cells were pelleted by centrifugation and snap frozen in MeOH-dry ice and stored at −80° C. until further use.
For membrane preparation, cell pellets were resuspended in lysis buffer (25 mM Tris/HCl pH 7.5 at 4° C., 1 mM EDTA, and one tablet of Complete Protease Inhibitor Cocktail Tablets with 2 mM EDTA per 50 mL buffer (Roche cat.#1697498, Roche Molecular Biochemicals, Indianapolis, Ind.)) and homogenized using a tight-fitting Dounce glass homogenizer (10 strokes) on ice. The homogenate was centrifuged at 1000×g, the supernatant was collected and centrifuged at 20,000×g. […] Protein concentration of the membrane suspension was determined by the method described in Bradford (1976) Anal Biochem. 72:248-54. […]

With `CCCC(=O)N(CCNC(=O)C(CS)CC(C)C)Cc1ccc(-c2ccccc2-c2nnn[nH]2)cc1` (centres unmarked) [Example 1, 2-Mercaptomethyl-4-methylpentanoic Acid (2-Butyryl-[2′-(1H-tetrazol-5-yl)biphenyl-4-ylmethyl]aminoethyl)amide], the “pIC50 for the NEP enzyme” value at NEP enzyme is given as “greater than or equal to 7.0”. Further, the Ki at human AT1 receptor was below 100 nM.
